Reference: PubChem BioAssay AID2060890 (Molecular Pharmacology Branch, DTP, NCI, 2025)
Blank lines part the entries; values can stand above or below the compound they belong to.

System: LG0703-F948-PDC complex spheroid viability
Assay: Anticancer human tumor LG0703-F948-PDC patient-derived lung adenocarcinoma cell line growth inhibition [RAS]
Details: for viability, T/C: stronger effect = lower value
Outline: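 Tumour cells grown as complex spheroids with HUVEC endothelial cells and mesenchymal stem cells, treated with RAS pathway inhibitor combinations. Each agent spans half-log steps from near clinical Cmax, or 10 microM where Cmax is unknown.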

[1] = curve of first compound, second compound 0.0316 µM
[2] = curve of first compound, second compound 0.1 µM
[3] = curve of first compound, second compound 0.316 µM
[4] = curve of first compound, second compound 1 µM
[5] = curve of first compound, second compound 3.16 µM
[6] = curve of first compound, second compound 10 µM
[7] = second compound 0.0316 µM, first compound 0.0316 µM
[8] = second compound 0.0316 µM, first compound 0.1 µM
[9] = second compound 0.0316 µM, first compound 0.316 µM
[10] = second compound 0.0316 µM, first compound 1 µM
[11] = second compound 0.0316 µM, first compound 3.16 µM
[12] = second compound 0.0316 µM, first compound 10 µM
[13] = second compound 0.1 µM, first compound 0.0316 µM
[14] = second compound 0.1 µM, first compound 0.1 µM
[15] = second compound 0.1 µM, first compound 0.316 µM
[16] = second compound 0.1 µM, first compound 1 µM
[17] = second compound 0.1 µM, first compound 3.16 µM
[18] = second compound 0.1 µM, first compound 10 µM
[19] = second compound 0.316 µM, first compound 0.0316 µM
[20] = second compound 0.316 µM, first compound 0.1 µM
[21] = second compound 0.316 µM, first compound 0.316 µM
[22] = second compound 0.316 µM, first compound 1 µM
[23] = second compound 0.316 µM, first compound 3.16 µM
[24] = second compound 0.316 µM, first compound 10 µM
[25] = second compound 1 µM, first compound 0.0316 µM
[26] = second compound 1 µM, first compound 0.1 µM
[27] = second compound 1 µM, first compound 0.316 µM
[28] = second compound 1 µM, first compound 1 µM
[29] = second compound 1 µM, first compound 3.16 µM
[30] = second compound 1 µM, first compound 10 µM
[31] = second compound 3.16 µM, first compound 0.0316 µM
[32] = second compound 3.16 µM, first compound 0.1 µM
[33] = second compound 3.16 µM, first compound 0.316 µM
[34] = second compound 3.16 µM, first compound 1 µM
[35] = second compound 3.16 µM, first compound 3.16 µM
[36] = second compound 3.16 µM, first compound 10 µM
[37] = second compound 10 µM, first compound 0.0316 µM
[38] = second compound 10 µM, first compound 0.1 µM
[39] = second compound 10 µM, first compound 0.316 µM
[40] = second compound 10 µM, first compound 1 µM
[41] = second compound 10 µM, first compound 3.16 µM
[42] = second compound 10 µM, first compound 10 µM
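Also: spheroids exposed to agents for 7 days.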
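For viability, T/C in this document: 100% = DMSO vehicle wells.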

- IC50 [1]: 1610 nM
- IC50 [2]: 1520 nM
- IC50 [3]: 903 nM
- IC50 [4]: 381 nM
- IC50 [5]: 62 nM
- IC50 [6]: < 31.6 nM
SMILES: CC(Nc1ccc2c(c1)OCCn1cc(N3C(=O)OCC3C(F)F)nc1-2)C(N)=O (stereo not drawn) + C#Cc1c(F)ccc2cc(O)cc(-c3ncc4c(N5CC6CCC(C5)N6)nc(OCC56CCCN5CC(F)C6)nc4c3F)c12
- viability, T/C [7]: 96%
- viability, T/C [8]: 88.5%
- viability, T/C [9]: 76.3%
- viability, T/C [10]: 56.4%
- viability, T/C [11]: 39.9%
- viability, T/C [12]: 21.6%
- viability, T/C [13]: 80.7%
- viability, T/C [14]: 81%
- viability, T/C [15]: 66.5%
- viability, T/C [16]: 56.3%
- viability, T/C [17]: 39.7%
- viability, T/C [18]: 19.5%
- viability, T/C [19]: 78.1%
- viability, T/C [20]: 71%
- viability, T/C [21]: 59.9%
- viability, T/C [22]: 50.8%
- viability, T/C [23]: 32%
- viability, T/C [24]: 12.5%
- viability, T/C [25]: 77.7%
- viability, T/C [26]: 71.2%
- viability, T/C [27]: 52.7%
- viability, T/C [28]: 32.2%
- viability, T/C [29]: 17.6%
- viability, T/C [30]: 9.15%
- viability, T/C [31]: 54.1%
- viability, T/C [32]: 47.5%
- viability, T/C [33]: 34%
- viability, T/C [34]: 18.7%
- viability, T/C [35]: 12.7%
- viability, T/C [36]: 4.54%
- viability, T/C [37]: 48.1%
- viability, T/C [38]: 31%
- viability, T/C [39]: 15.2%
- viability, T/C [40]: 7.38%
- viability, T/C [41]: 4.96%
- viability, T/C [42]: 2.4%

- IC50 [1]: 601 nM
- IC50 [2]: 699 nM
- IC50 [3]: 238 nM
- IC50 [4]: 257 nM
- IC50 [5]: 59.4 nM
- IC50 [6]: < 31.6 nM
SMILES: CC(C)NCC(C(=O)N1CCN(c2ncnc3c2C(C)CC3O)CC1)c1ccc(Cl)cc1 (stereo not drawn) + C#Cc1c(F)ccc2cc(O)cc(-c3ncc4c(N5CC6CCC(C5)N6)nc(OCC56CCCN5CC(F)C6)nc4c3F)c12
- viability, T/C [7]: 90%
- viability, T/C [8]: 67.3%
- viability, T/C [9]: 59.7%
- viability, T/C [10]: 46.4%
- viability, T/C [11]: 29.8%
- viability, T/C [12]: 26.1%
- viability, T/C [13]: 86.1%
- viability, T/C [14]: 68.2%
- viability, T/C [15]: 64.5%
- viability, T/C [16]: 40.5%
- viability, T/C [17]: 37.5%
- viability, T/C [18]: 22.9%
- viability, T/C [19]: 82.5%
- viability, T/C [20]: 60%
- viability, T/C [21]: 44.5%
- viability, T/C [22]: 35%
- viability, T/C [23]: 31.1%
- viability, T/C [24]: 15.8%
- viability, T/C [25]: 68.6%
- viability, T/C [26]: 63.6%
- viability, T/C [27]: 47.5%
- viability, T/C [28]: 25.6%
- viability, T/C [29]: 20.4%
- viability, T/C [30]: 10.2%
- viability, T/C [31]: 57.6%
- viability, T/C [32]: 43.4%
- viability, T/C [33]: 32.9%
- viability, T/C [34]: 17.8%
- viability, T/C [35]: 11.7%
- viability, T/C [36]: 7.15%
- viability, T/C [37]: 34%
- viability, T/C [38]: 33.9%
- viability, T/C [39]: 17.9%
- viability, T/C [40]: 8.97%
- viability, T/C [41]: 3.2%
- viability, T/C [42]: 0.42%

- IC50 [1]: 4.71 nM
- IC50 [2]: 3.96 nM
- IC50 [3]: 3.99 nM
- IC50 [4]: 2.13 nM
- IC50 [5]: 0.608 nM
- IC50 [6]: 0.343 nM
SMILES: CC(C)n1nc(-c2ccc3oc(N)nc3c2)c2c(N)ncnc21 + C#Cc1c(F)ccc2cc(O)cc(-c3ncc4c(N5CC6CCC(C5)N6)nc(OCC56CCCN5CC(F)C6)nc4c3F)c12
- viability, T/C (second compound 0.0316 µM, first compound 0.000316 µM): 90.7%
- viability, T/C (second compound 0.0316 µM, first compound 0.001 µM): 82.5%
- viability, T/C (second compound 0.0316 µM, first compound 0.00316 µM): 59.2%
- viability, T/C (second compound 0.0316 µM, first compound 0.01 µM): 32%
- viability, T/C [7]: 18%
- viability, T/C [8]: 12.3%
- viability, T/C (second compound 0.1 µM, first compound 0.000316 µM): 80.7%
- viability, T/C (second compound 0.1 µM, first compound 0.001 µM): 85.6%
- viability, T/C (second compound 0.1 µM, first compound 0.00316 µM): 47.7%
- viability, T/C (second compound 0.1 µM, first compound 0.01 µM): 34%
- viability, T/C [13]: 19.7%
- viability, T/C [14]: 11%
- viability, T/C (second compound 0.316 µM, first compound 0.000316 µM): 88.3%
- viability, T/C (second compound 0.316 µM, first compound 0.001 µM): 75.3%
- viability, T/C (second compound 0.316 µM, first compound 0.00316 µM): 57.6%
- viability, T/C (second compound 0.316 µM, first compound 0.01 µM): 27.1%
- viability, T/C [19]: 11.2%
- viability, T/C [20]: 8.26%
- viability, T/C (second compound 1 µM, first compound 0.000316 µM): 67.6%
- viability, T/C (second compound 1 µM, first compound 0.001 µM): 51%
- viability, T/C (second compound 1 µM, first compound 0.00316 µM): 50.2%
- viability, T/C (second compound 1 µM, first compound 0.01 µM): 21.1%
- viability, T/C [25]: 9.33%
- viability, T/C [26]: 5.14%
- viability, T/C (second compound 3.16 µM, first compound 0.000316 µM): 58.6%
- viability, T/C (second compound 3.16 µM, first compound 0.001 µM): 44.2%
- viability, T/C (second compound 3.16 µM, first compound 0.00316 µM): 23.4%
- viability, T/C (second compound 3.16 µM, first compound 0.01 µM): 13.9%
- viability, T/C [31]: 5.52%
- viability, T/C [32]: 3.09%
- viability, T/C (second compound 10 µM, first compound 0.000316 µM): 50.9%
- viability, T/C (second compound 10 µM, first compound 0.001 µM): 37.8%
- viability, T/C (second compound 10 µM, first compound 0.00316 µM): 16.5%
- viability, T/C (second compound 10 µM, first compound 0.01 µM): 4.6%
- viability, T/C [37]: 2.45%
- viability, T/C [38]: 0.63%

- IC50 (curve of compound): 10.1 nM [middle of 4 runs]
SMILES: C=CC(=O)Nc1cc(Nc2nccc(-c3cn(C)c4ccccc34)n2)c(OC)cc1N(C)CCN(C)C
- viability, T/C (compound 0.00316 µM): 90.6% [middle of 4 runs]
- viability, T/C (compound 0.01 µM): 50.2% [middle of 4 runs]
- viability, T/C (compound 0.0316 µM): 21.9% [middle of 4 runs]
- viability, T/C (compound 0.1 µM): 16.2% [middle of 4 runs]
- viability, T/C (compound 0.316 µM): 17.2% [middle of 4 runs]
- viability, T/C (compound 1 µM): 12.8% [middle of 4 runs]
